Legend:
[1] = Formation of adducts with MDA, kinetic study by HPLC; format: physicochemical; conditions: compound 10 mM, MDA 20 mM, 37° C., after 24 h of reaction; no HPLC separation, trend
Procedure: The compounds to be tested are incubated at 37° C. in the presence of MGO or of MDA. A kinetic study aiming to report on the formation of adducts with the MGO or MDA is then carried out via HPLC analysis.
The compounds to be tested (30 μmol) are dissolved in PBS (1.5 mL). An aqueous solution (qsp 1.25 mL) of MGO at 40% in water (250 μmol) is then prepared and in parallel, MDA bis-(diOEt)-acetal (250 μmol) is set to react with a solution of HCl 1N (2 eq) in water (qsp 1.25 mL) for 1 h at room temperature. An aqueous solution of NaOH 0.05N is also required to neutralise the reaction medium (5 mL).
The solution of the compound to be tested (625 μL—final concentration in the medium=10 mM) is then set to react with the solution of MGO or of MDA prepared extemporaneously (125 μL—final concentration in the medium=20 mM) in the presence of NaOH 0.05 N (0.5 mL). […]
A sampling of each mixture (100 μL) is taken at regular intervals of time (0.25; 0.5; 1; 5 and 24 h) and stored at −20° C. in order to stop the reaction. […] The proportion of adducts formed with the MGO or MDA (generally, tR=4.1 to 6.8 min) is then measured in relation to the quantity of remaining free scavenger (generally, tR=0.8 to 4.6 min) after measurement of the area under the curve of the corresponding peaks on the UV spectrum (measurements taken for a representative sample).

[2] = system: rat pheochromocytoma cells, treated as neuronal cells (PC12); assay: Anti-apoptotic properties after MGO-induced apoptosis (ELISA) on PC12; format: cell-based; conditions: 24 h
Procedure: (§1) The apoptosis of cells is evaluated by an ELISA method using two murine monoconal antibodies with one directed against the DNA and the other against the histones ([…] Cell Death Detection kit, Roche, Meylan, France). This technique makes it possible to specifically measure the mono- and oligo-nucleosomes in the cytoplasmic fraction of the cell lysates.
(§2) Briefly, the cells are inoculated in 96-well or 24-well plates at a rate of 5.10^3 cells/well for the Bend.3 and PC12 and 75.10^3 cells/well for the MRCS in the suitable medium until subconfluence. The cells are then washed with PBS, then treated with various concentrations (10 μM, 100 μM) of the products to be tested in triplicates for 30 min to 1 h (cellules PC12 and Bend.3) or 1 h (cellules MRCS) at 37° C. The solution of MGO (1 mM for the cellules PC12, 2 mM for the cellules Bend.3 and MRCS) is then added for an incubation of 24 h. The concentrations of MGO for each cell type were chosen according to literature and a cytotoxicity test (CCK8) that we conducted. The solution of lyse is then added to each well for 30 min at room temperature. The cell lysates are then centrifuged at 200 g for 10 min. Twenty microliters of this cell lysate is then used for the ELISA according to the procedure described by the supplier. The cell lysates are as such applied to a plate covered with anti-Histones antibodies making it possible to view the fragmentation of the DNA. A peroxidase combined with anti-DNA antibodies then reacts in the presence of the substrate thereof, ABTS (diammonium 2,2′-azino-bis(3-ethylbenzothiazoline-6-sulphonate) and H2O2 in order to give a green derivative of which the optical density reflects the level of apoptosis. The measurement of the absorbance is taken at 405 nm using a Perkin Elmer 2103 Envision® microplate reader. A positive control is carried out in the presence of MGO alone.
The apoptosis of the cells is expressed by the mean±standard deviation of triplicates forming a representative experiment or of three independent experiments conducted in triplicate.

[3] = system: murine endothelial brain cells (bEnd.3); assay: Anti-apoptotic properties after MGO-induced apoptosis (ELISA) on bEnd.3; format: cell-based; conditions: bEnd.3, pretreated 30 min with 10 or 100 μM, then 2 mM MGO, 24 h
Procedure: as §1
as §2, with “The concentrations of MGO for each cell type were chosen according to literature and a cytotoxicity test (CCK8) that we conducted. The solution of lyse is then added to each well for 30 min at room temperature. The cell lysates are then centrifuged at 200 g for 10 min. Twenty microliters of this cell lysate is then used for the ELISA according to the procedure described by the supplier. The cell lysates are as such applied to a plate covered with anti-Histones antibodies making it possible to view the fragmentation of the DNA.” left out, “alone. […]” for “alone.”

[4] = system: human fibroblasts (MRC-5); assay: Anti-apoptotic properties after MGO-induced apoptosis (ELISA) on MRC-5; format: cell-based; conditions: MRC-5, pretreated 1 h with 10 or 100 μM, then 2 mM MGO, 24 h
Procedure: as §1
as §2, with “The concentrations of MGO for each cell type were chosen according to literature and a cytotoxicity test (CCK8) that we conducted. The solution of lyse is then added to each well for 30 min at room temperature. The cell lysates are then centrifuged at 200 g for 10 min. Twenty microliters of this cell lysate is then used for the ELISA according to the procedure described by the supplier. The cell lysates are as such applied to a plate covered with anti-Histones antibodies making it possible to view the fragmentation of the DNA.” left out, “alone. […]” for “alone.”

[5] = PC12, pretreated 30 min with 10 or 100 μM, then 1 mM MGO

| Compound | adducts with the MDA with regards to the free scavenger [1] | anti-apoptotic properties [2, 5] | anti-apoptotic properties [3] | anti-apoptotic properties [4] | anti-apoptotic properties ([2]; PC12, pretreated 1 h, 100 μM, 1 mM MGO, three independent experiments in triplicate) |
| --- | --- | --- | --- | --- | --- |
| COc1cc(/C=C/C(=O)N2CCN(C(=O)CCC(N)CN)CC2)ccc1O (centres unmarked) [Compound 29a, (E)-4,5-diamino-1-(4-(3-(4-hydroxy-3-methoxyphenyl)acryloyl)piperazin-1-yl)pentan-1-one] | majority presence of AdD | – | – | – | – |
| NCC(N)CCCCNC(=O)c1cc(O)c(O)c(O)c1 (centres unmarked) [Compound 30b, N-(5,6-diaminohexyl)-3,4,5-trihydroxybenzamide] | – | this trend is confirmed at 100 μM | very interesting anti-apoptotic properties starting at 10 μM | – | – |
| NCC(N)CCCCNC(=O)CCn1cccc(O)c1=O (centres unmarked) [Compound 37b, N-(5,6-diaminohexyl)-3-(3-hydroxy-2-oxopyridin-1(2H)-yl)propanamide] | – | – | – | promising anti-apoptotic properties at 100 μM | – |
| NCC(N)CCC(=O)NCCCn1cccc(O)c1=O (centres unmarked) [Compound 37c, 4,5-diamino-N-(3-(3-hydroxy-2-oxopyridin-1(2H)-yl)propyl)pentanamide] | – | very interesting anti-apoptotic properties starting at 10 μM | very interesting anti-apoptotic properties starting at 10 μM | promising anti-apoptotic properties at 100 μM | confirmed |

— patent US10464920B2, “Vicinal primary diamines associated with metal and/or free radical chelation motifs, and active against carbonyl and oxidative stress, and use thereof” (UNIVERSITE AMIENS PICARDIE JULES VERNE, priority 2015, dated 2019)
